In patent publication US20190388425A1, “SUBSTITUTED IMIDAZOPYRIDINPYRIMIDINES” (Bayer Pharma Aktiengesellschaft, priority 2017, published 2019):
pIC50: −log10 of the molar value.

Target: T1, human full-length MKNK1 (Homo sapiens, UniProt Q9BUB5, T385D)
T1 construct: GST (N); purchased Carna Biosciences 02-145; host or cells: insect cells (baculovirus expression system)
Assay: MKNK1 kinase high ATP assay (TR-FRET)
Format: biochemical
Conditions: TR-FRET, 2 mM ATP (high ATP), 15 min preincubation with enzyme, 30 min reaction at 22° C.; read-out: MKNK1 IC50
Method: MKNK1 Kinase High ATP Assay
MKNK1-inhibitory activity at high ATP of compounds of the present invention after their preincubation with MKNK1 was quantified employing the TR-FRET-based MKNK1 high ATP assay as described in the following paragraphs.
As substrate for the kinase reaction the biotinylated peptide biotin-Ahx-[…] (C-terminus in amide form) was used, which can be purchased e.g. from the company Biosyntan (Berlin-Buch, Germany).
For the assay 50 nL of a 100 fold concentrated solution of the test compound in DMSO was pipetted into a black low volume 384 well microtiter plate (Greiner Bio-One, Frickenhausen, Germany), 2 μL of a solution of MKNK1 in aqueous assay buffer [50 mM HEPES pH 7.5, 5 mM MgCl2, 1.0 mM dithiothreitol, 0.005% (v/v) Nonidet-P40 (Sigma)] was added and the mixture was incubated for 15 min at 22° C. to allow pre-binding of the test compounds to the enzyme before the start of the kinase reaction. Then the kinase reaction was started by the addition of 3 μL of a solution of adenosine-tri-phosphate (ATP, 3.3 mM=>final conc. in the 5 μL assay volume is 2 mM) and substrate (0.1 μM=>final conc. in the 5 μL assay volume is 0.06 μM) in assay buffer and the resulting mixture was incubated for a reaction time of 30 min at 22° C. The concentration of MKNK1 was adjusted depending of the activity of the enzyme lot and was chosen appropriate to have the assay in the linear range, typical concentrations were in the range of 0.003 μg/mL. The reaction was stopped by the addition of 5 μL of a solution of TR-FRET detection reagents (5 nM streptavidine-XL665 [Cisbio Bioassays, Codolet, France] and 1 nM anti-ribosomal protein S6 (pSer236)-antibody from Invitrogen [#44921G] and 1 nM LANCE EU-W1024 labeled ProteinG [Perkin-Elmer, product no. AD0071]) in an aqueous EDTA-solution (100 mM EDTA, 0.1% (w/v) bovine serum albumin in 50 mM HEPES pH 7.5).
The resulting mixture was incubated for 1 h at 22° C. to allow the formation of complex between the phosphorylated biotinylated peptide and the detection reagents. Subsequently the amount of phosphorylated substrate was evaluated by measurement of the resonance energy transfer from the Eu-chelate to the streptavidine-XL. Therefore, the fluorescence emissions at 620 nm and 665 nm after excitation at 350 nm were measured in a TR-FRET reader, e.g. a Rubystar (BMG Labtechnologies, Offenburg, Germany) or a Viewlux (Perkin-Elmer). The ratio of the emissions at 665 nm and at 622 nm was taken as the measure for the amount of phosphorylated substrate.

T1 sequence (Q9BUB5 1-424 isoform Q9BUB5-2 T344D): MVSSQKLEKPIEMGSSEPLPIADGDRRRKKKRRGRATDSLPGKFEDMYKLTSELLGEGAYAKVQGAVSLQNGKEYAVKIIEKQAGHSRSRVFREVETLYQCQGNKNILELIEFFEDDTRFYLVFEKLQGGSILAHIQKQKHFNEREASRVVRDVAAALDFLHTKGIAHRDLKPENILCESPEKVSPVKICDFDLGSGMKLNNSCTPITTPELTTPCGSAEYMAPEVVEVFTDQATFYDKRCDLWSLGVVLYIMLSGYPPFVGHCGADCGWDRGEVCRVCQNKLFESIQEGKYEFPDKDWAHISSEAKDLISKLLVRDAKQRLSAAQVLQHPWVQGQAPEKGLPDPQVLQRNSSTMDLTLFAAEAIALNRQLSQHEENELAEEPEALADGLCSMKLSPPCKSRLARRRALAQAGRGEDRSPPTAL

pIC50 | Compound
9.22 | Cc1cc(Nc2ncnc3sc4c(c23)CC[C@H](C(=O)N(C)C)C4)c(=O)n2c1C(=O)NC21CCC1 [Example 20, (7S)—N,N-Dimethyl-4-[(8′-methyl-1′,5′-dioxo-1′,5′-dihydro-2′H-spiro[cyclobutane-1,3′-imidazo[1,5-a]pyridin]-6′-yl)amino]-5,6,7,8-tetrahydro[1]benzothieno[2,3-d]pyrimidine-7-carboxamide]
9.22 | Cc1cc(Nc2ncnc3sc4c(c23)CC[C@H](C(=O)N2CCC2)C4)c(=O)n2c1C(=O)NC21CCC1 [Example 21, 6′-{[(7S)-7-(Azetidin-1-ylcarbonyl)-5,6,7,8-tetrahydro[1]benzothieno[2,3-d]pyrimidin-4-yl]amino}-8′-methyl-2′H-spiro[cyclobutane-1,3′-imidazo[1,5-a]pyridine]-1′,5′-dione]
9.30 | Cc1cc(Nc2ncnc3sc4c(c23)CC[C@H](C(=O)N2CC(C#N)C2)C4)c(=O)n2c1C(=O)NC21CCC1 [Example 22, 1-({(7S)-4-[(8′-Methyl-1′,5′-dioxo-1′,5′-dihydro-2′H-spiro[cyclobutane-1,3′-imidazo[1,5-a]pyridin]-6′-yl)amino]-5,6,7,8-tetrahydro[1]benzothieno[2,3-d]pyrimidin-7-yl}carbonyl)azetidine-3-carbonitrile]
9.40 | Cc1cc(Nc2ncnc3sc4c(c23)CC[C@H](C(=O)N2CC(N(C)C)C2)C4)c(=O)n2c1C(=O)NC21CCC1 [Example 23, 6′-{[(7S)-7-{[3-(Dimethylamino)azetidin-1-yl]carbonyl}-5,6,7,8-tetrahydro[1]benzothieno[2,3-d]pyrimidin-4-yl]amino}-8′-methyl-2′H-spiro[cyclobutane-1,3′-imidazo[1,5-a]pyridine]-1′,5′-dione]
9.70 | Cc1cc(Nc2ncnc3sc4c(c23)CC[C@H](C(=O)N2CC[C@H](N(C)C)C2)C4)c(=O)n2c1C(=O)NC21CCC1 [Example 24, 6′-{[(7S)-7-{[(3S)-3-(Dimethylamino)pyrrolidin-1-yl]carbonyl}-5,6,7,8-tetrahydro[1]benzothieno[2,3-d]pyrimidin-4-yl]amino}-8′-methyl-2′H-spiro[cyclobutane-1,3′-imidazo[1,5-a]pyridine]-1′,5′-dione]
9.40 | Cc1cc(Nc2ncnc3sc4c(c23)CC[C@H](C(=O)N2CCN(C)[C@H](C)C2)C4)c(=O)n2c1C(=O)NC21CCC1 [Example 25, 6′-{[(7S)-7-{[(3R)-3,4-Dimethylpiperazin-1-yl]carbonyl}-5,6,7,8-tetrahydro[1]benzothieno[2,3-d]pyrimidin-4-yl]amino}-8′-methyl-2′H-spiro[cyclobutane-1,3′-imidazo[1,5-a]pyridine]-1′,5′-dione]
9.15 | Cc1cc(Nc2ncnc3sc4c(c23)CC[C@H](C(=O)N2C[C@H]3C[C@@H]2CO3)C4)c(=O)n2c1C(=O)NC21CCC1 [Example 26, 8′-Methyl-6′-({(7S)-7-[(1R,4R)-2-oxa-5-azabicyclo[2.2.1]hept-5-ylcarbonyl]-5,6,7,8-tetrahydro[1]benzothieno[2,3-d]pyrimidin-4-yl}amino)-2′H-spiro[cyclobutane-1,3′-imidazo[1,5-a]pyridine]-1′,5′-dione]
8.70 | Cc1cc(Nc2ncnc3sc4c(c23)CC[C@H](C(=O)N(C)C)C4)c(=O)n2c1C(=O)NC2(C)C [Example 27, (7S)—N,N-Dimethyl-4-[(3,3,8-trimethyl-1,5-dioxo-1,2,3,5-tetrahydroimidazo[1,5-a]pyridin-6-yl)amino]-5,6,7,8-tetrahydro[1]benzothieno[2,3-d]pyrimidine-7-carboxamide]
9.00 | Cc1cc(Nc2ncnc3sc4c(c23)CC[C@H](C(=O)N2CCC2)C4)c(=O)n2c1C(=O)NC2(C)C [Example 28, 6-{[(7S)-7-(Azetidin-1-ylcarbonyl)-5,6,7,8-tetrahydro[1]benzothieno[2,3-d]pyrimidin-4-yl]amino}-3,3,8-trimethyl-2,3-dihydroimidazo[1,5-a]pyridine-1,5-dione]
9.00 | Cc1cc(Nc2ncnc3sc4c(c23)CC[C@H](C(=O)N2CC(C#N)C2)C4)c(=O)n2c1C(=O)NC2(C)C [Example 29, 1-({(7S)-4-[(3,3,8-Trimethyl-1,5-dioxo-1,2,3,5-tetrahydroimidazo[1,5-a]pyridin-6-yl)amino]-5,6,7,8-tetrahydro[1]benzothieno[2,3-d]pyrimidin-7-yl}carbonyl)azetidine-3-carbonitrile]
8.89 | Cc1cc(Nc2ncnc3sc4c(c23)CC[C@H](C(=O)N2CC(N(C)C)C2)C4)c(=O)n2c1C(=O)NC2(C)C [Example 30, 6-{[(7S)-7-{[3-(Dimethylamino)azetidin-1-yl]carbonyl}-5,6,7,8-tetrahydro[1]benzothieno[2,3-d]pyrimidin-4-yl]amino}-3,3,8-trimethyl-2,3-dihydroimidazo[1,5-a]pyridine-1,5-dione]
9.05 | Cc1cc(Nc2ncnc3sc4c(c23)CC[C@H](C(=O)N2CC[C@H](N(C)C)C2)C4)c(=O)n2c1C(=O)NC2(C)C [Example 31, 6-{[(7S)-7-{[(3S)-3-(Dimethylamino)pyrrolidin-1-yl]carbonyl}-5,6,7,8-tetrahydro[1]benzothieno[2,3-d]pyrimidin-4-yl]amino}-3,3,8-trimethyl-2,3-dihydroimidazo[1,5-a]pyridine-1,5-dione]
9.30 | Cc1cc(Nc2ncnc3sc4c(c23)CC[C@H](C(=O)N2CCN(C)[C@H](C)C2)C4)c(=O)n2c1C(=O)NC2(C)C [Example 32, 6-{[(7S)-7-{[(3R)-3,4-Dimethylpiperazin-1-yl]carbonyl}-5,6,7,8-tetrahydro[1]benzothieno[2,3-d]pyrimidin-4-yl]amino}-3,3,8-trimethyl-2,3-dihydroimidazo[1,5-a]pyridine-1,5-dione]
9.10 | Cc1cc(Nc2ncnc3sc4c(c23)CC[C@H](C(=O)N2C[C@H]3C[C@@H]2CO3)C4)c(=O)n2c1C(=O)NC2(C)C [Example 33, 3,3,8-Trimethyl-6-({(7S)-7-[(1R,4R)-2-oxa-5-azabicyclo[2.2.1]hept-5-ylcarbonyl]-5,6,7,8-tetrahydro[1]benzothieno[2,3-d]pyrimidin-4-yl}amino)-2,3-dihydroimidazo[1,5-a]pyridine-1,5-dione]
8.33 | Cc1cc(Nc2ncnc3sc4c(c23)CC[C@H](C(=O)O)C4)c(=O)n2c1C(=O)NC21CCCC1 [Example 34, (7S)-4-[(8′-Methyl-1′,5′-dioxo-1′,5′-dihydro-2′H-spiro[cyclopentane-1,3′-imidazo[1,5-a]pyridin]-6′-yl)amino]-5,6,7,8-tetrahydro[1]benzothieno[2,3-d]pyrimidine-7-carboxylic acid]
9.40 | Cc1cc(Nc2ncnc3sc4c(c23)CC[C@H](C(=O)N2CCN(C)[C@H](C)C2)C4)c(=O)n2c1C(=O)NC21CCCC1 [Example 35, 6′-{[(7S)-7-{[(3R)-3,4-Dimethylpiperazin-1-yl]carbonyl}-5,6,7,8-tetrahydro[1]benzothieno[2,3-d]pyrimidin-4-yl]amino}-8′-methyl-2′H-spiro[cyclopentane-1,3′-imidazo[1,5-a]pyridine]-1′,5′-dione]
8.89 | Cc1cc(Nc2ncnc3sc4c(c23)CC[C@H](C(=O)N2C[C@H]3C[C@@H]2CO3)C4)c(=O)n2c1C(=O)NC21CCCC1 [Example 36, 8′-Methyl-6′-({(7S)-7-[(1R,4R)-2-oxa-5-azabicyclo[2.2.1]hept-5-ylcarbonyl]-5,6,7,8-tetrahydro[1]benzothieno[2,3-d]pyrimidin-4-yl}amino)-2′H-spiro[cyclopentane-1,3′-imidazo[1,5-a]pyridine]-1′,5′-dione]
9.15 | Cc1cc(Nc2ncnc3sc4c(c23)CC[C@H](C(=O)N(C)C)C4)c(=O)n2c1C(=O)NC21CCCC1 [Example 37, (7S)—N,N-Dimethyl-4-[(8′-methyl-1′,5′-dioxo-1′,5′-dihydro-2′H-spiro[cyclopentane-1,3′-imidazo[1,5-a]pyridin]-6′-yl)amino]-5,6,7,8-tetrahydro[1]benzothieno[2,3-d]pyrimidine-7-carboxamide]
8.51 | Cc1cc(Nc2ncnc3sc4c(c23)CC[C@H](C(=O)N2CCC2)C4)c(=O)n2c1C(=O)NC21CCCC1 [Example 38, 6′-{[(7S)-7-(Azetidin-1-ylcarbonyl)-5,6,7,8-tetrahydro[1]benzothieno[2,3-d]pyrimidin-4-yl]amino}-8′-methyl-2′H-spiro[cyclopentane-1,3′-imidazo[1,5-a]pyridine]-1′,5′-dione]
